# Laboratory results from paper PMC12037037 (Proceedings of the National Academy of Sciences of the …, 2025).
# Assays:
# [1] = biological target: T1, 5-HT2CR (Homo sapiens, UniProt P28335); assay: IP1 functional assay (5-HT2CR); assay type: cell-based; conditions: 5-HT2C, IP1, agonist mode
# T1 construct: Epics Therapeutics S.A
# Description: IP1 Assay (5-HT2AR and 5-HT2CR). The 5-HT2AR and 5-HT2CR IPOne HTRF assays were performed at Epics
# Therapeutics S.A. (Belgium, FAST-0505I) using conventional methods. Experiments were performed using the free bases
# of (+)-JRT and (–)-JRT. Briefly, CHO-K1 cells expressing human recombinant 5-HT2AR grown to mid-log phase in culture
# media without antibiotics were detached with PBS-EDTA, centrifuged, and resuspended in medium without antibiotics
# buffer. Then, 20,000 cells were distributed in a 96-well plate and incubated overnight at 37 °C with 5% CO2. For agonist
# were added to each well. The plate was incubated for 60 min at 37 °C with 5% CO2. After addition of the lysis buffer containing
# IP1-d2 and anti-IP1 cryptate detection reagents, plates were incubated for 1 h at room temperature and fluorescence ratios
# were measured according to the manufacturer’s specifications using the HTRF kit.
# IP1 Assay (5-HT2BR). […]
# Following incubation, the cells are lysed and the fluorescence acceptor (D2-
# labeled IP1) and fluorescence donor (anti-IP1 antibody labeled with europium cryptate) were added. […]
# temperature, the fluorescence transfer was measured at lex = 337 nm and lem = 620 and 665 nm using a microplate
# reader (Envision, Perkin Elmer). The IP1 concentration was determined by dividing the signal measured at 665 nm by that
# measured at 620 nm (ratio). […]
# [2] = tested on: C57BL/6J mice; assay: Prepulse inhibition (PPI); assay type: in vivo
# Description: Amphetamine-Induced Locomotion. The amphetamine-induced hyperlocomotion assay was performed using male and female C57BL/6J mice that were approximately 8 weeks old at the time of the experiments. Animals were first placed in the test arena (40 cm x 40 cm) for 15 min to obtain a basal reading of locomotion and habituate them to the testing arena.
# Next, animals were administered (+)-JRT (1 mg/kg) or VEH (2.5 mL/kg, i.p) and placed back in the test arena. After 15 min, the animals were administered (+)-amphetamine (3 mg/kg) or VEH (2.5 mL/kg) and placed back in the test arena for 60 minutes. Locomotion during the entire experiment was quantified using ANYmaze Video Tracking System, version 7.07 (Stoelting Co.). The test arena was cleaned thoroughly with 70% ethanol between trials.
# PCP-Induced Locomotion. The PCP-induced hyperlocomotion assay was performed by Psychogenics using male C57BL/6J mice that were approximately 8 weeks old at the time of the experiments. The experiment was performed during the animal’s light cycle phase. […] Baseline activity was recorded for 30 min. […] Locomotion was assessed using consecutive infrared beam breaks. […]
# Next, startle response was measured in response to five 40 ms sound bursts of 80, 90, 100, 110, or 120 dB (random order, fixed intertrial interval). […] Percent PPI was calculated according to the formula: 100 – [(pre-pulse + pulse)/pulse alone) × 100. […]
# [3] = Pharmacokinetics studies (plasma and brain); assay type: in vivo, rats
# Description: Pharmacokinetic studies of (+)-JRT.
# rats following a 1 mg/kg IP administration of (+)-JRT fumarate (N = 3).
# JRT in the brains of rats following a 1 mg/kg IP administration of (+)-JRT fumarate (N = 3 for the 0.25, 0.5, and 1.0 h time
# points, N = 1 for the 2.0 h time point).
# Pharmacokinetics Studies. […] Male Sprague Dawley rats (190 – 206 g) were purchased from Shanghai JiHui Laboratory Animal Co., Ltd (Shaghai, China) and were administered (+)-JRT fumarate via IP injection (1 mg/kg, 5 mL/kg) after overnight fasting. Animals were sacrificed and plasma and brain samples were collected at time points of 0.25, 0.5, 1, 2, and 4 hours post dose (N = 3 per time point). Approximately 150 μL of blood was collected into a K2EDTA tube via jugular vein. Blood samples were put on wet ice and centrifuged to obtain plasma samples (2000 g, 5 min, 4 °C) within 15 min. After blood collection, a mid-line incision was made into the scalp and the skin retracted. The skull overlaying the brain was removed, and the whole brain was collected, rinsed with cold saline, dried on filter paper, weighed, and snap frozen via dry ice. Plasma and brain samples were stored at approx. -70 °C until analysis.
# For plasma samples, an aliquot of 30 μL sample was mixed with 200 μL internal standard (IS) (propranolol, 40 ng/mL in MeCN). The mixture was vortexed for 1 min and centrifuged at 5800 rpm for 10 min. The supernatant was collected and 0.5 μL was injected for LC-MS/MS analysis. Brain samples were homogenized with 2 volumes (v/w) of PBS (dilution factor of 3). The procedure for diluted brain samples was the same as the plasma samples. Plasma concentrations are reported as ng/mL and brain concentrations, with a dilution factor of 3 applied, are reported as ng/g. […]
# 1.61 min and 1.43 min respectively, and the analytes were ionized under a positive ion spray mode and detected through […]
# T1 sequence (P28335 33-458): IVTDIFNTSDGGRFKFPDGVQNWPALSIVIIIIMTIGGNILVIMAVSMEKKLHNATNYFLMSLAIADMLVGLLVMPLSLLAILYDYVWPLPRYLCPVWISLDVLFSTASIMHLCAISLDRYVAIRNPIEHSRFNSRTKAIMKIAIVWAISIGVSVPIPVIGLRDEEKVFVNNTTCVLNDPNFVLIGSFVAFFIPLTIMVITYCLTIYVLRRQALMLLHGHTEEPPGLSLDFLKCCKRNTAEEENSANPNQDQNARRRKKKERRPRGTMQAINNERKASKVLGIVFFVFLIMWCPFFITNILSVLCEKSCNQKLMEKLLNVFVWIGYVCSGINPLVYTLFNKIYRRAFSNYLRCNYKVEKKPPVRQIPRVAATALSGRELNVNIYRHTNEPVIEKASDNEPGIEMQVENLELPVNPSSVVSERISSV
structure (smiles),measurement,setting,value
CCN(CC)C(=O)[C@@H]1C=C2c3cccc4ccn(c34)C[C@H]2N(C)C1 [(+)-JRT],Emax,[1],89%
same,Deficits in prepulse inhibition induced by the compound itself,[2]; 1 mg/kg IP,did not induce any deficits in PPI
same,Effect of pretreatment on MK-801-induced deficits in prepulse inhibition,"[2]; 1 mg/kg IP pretreatment, MK-801",did not exacerbate
same,Presence in rat brain and plasma within 2 h,[3]; 1 mg/kg IP dose,nearly absent
same,Levels in plasma or brain at 4 h,"[3]; 1 mg/kg IP, (+)-JRT fumarate, rats",below the limit of quantification
same,Brain concentration relative to the Ki at the 5-HT2AR,"[3]; 1 mg/kg, rat",~ 20 fold
